Results: ChEMBL document CHEMBL3734663, “Solid-phase synthesis and in vitro biological activity of a Thr4→Ser4 analog of daptomycin” (2015)

What was measured:
Assay type in all cases: functional
[1] = tested on: Bacillus subtilis; assay: Antibacterial activity against Bacillus subtilis 1046 in presence of 1.8 mM Ca2+
[2] = tested on: Bacillus subtilis; assay: Antibacterial activity against Bacillus subtilis 1046 in presence of 5 mM Ca2+
[3] = tested on: Bacillus subtilis; assay: Antibacterial activity against Bacillus subtilis 1046 in presence of 100 mM Ca2+

| Structure (SMILES) | MIC [2] | MIC [3] | MIC [1] |
| --- | --- | --- | --- |
| CCCCCCCCCC(=O)N[C@@H](Cc1c[nH]c2ccccc12)C(=O)NC(CC(N)=O)C(=O)N[C@@H](CC(=O)O)C(=O)N[C@@H]1C(=O)NCC(=O)N[C@@H](CCCN)C(=O)N[C@@H](CC(=O)O)C(=O)N[C@H](C)C(=O)N[C@@H](CC(=O)O)C(=O)NCC(=O)N[C@H](CO)C(=O)N[C@@H](C(C)CC(=O)O)C(=O)N[C@@H](CC(=O)c2ccccc2N)C(=O)O[C@@H]1C (single isomer, unassigned) [DAPTOMYCIN] | 5 µg/mL | 5 µg/mL | 40 µg/mL |
| CCCCCCCCCC(=O)N[C@@H](Cc1c[nH]c2ccccc12)C(=O)N[C@H](CC(N)=O)C(=O)N[C@@H](CC(=O)O)C(=O)N[C@@H]1C(=O)NCC(=O)N[C@@H](CCCN)C(=O)N[C@@H](CC(=O)O)C(=O)N[C@H](C)C(=O)N[C@@H](CC(=O)O)C(=O)NCC(=O)N[C@H](CO)C(=O)N[C@@H]([C@H](C)CC(=O)O)C(=O)N[C@@H](CC(=O)c2ccccc2N)C(=O)O[C@@H]1C | 0.75 µg/mL | 0.5 µg/mL | 1 µg/mL |
| CCCCCCCCCC(=O)N[C@@H](Cc1c[nH]c2ccccc12)C(=O)N[C@@H](CC(N)=O)C(=O)N[C@@H](CC(=O)O)C(=O)N[C@H]1COC(=O)[C@H](Cc2c[nH]c3ccccc23)NC(=O)[C@H](CCC(=O)O)NC(=O)[C@@H](CO)NC(=O)CNC(=O)[C@H](CC(=O)O)NC(=O)[C@@H](C)NC(=O)[C@H](C)NC(=O)[C@H](CCCN)NC(=O)CNC1=O | > 100 µg/mL | > 100 µg/mL | > 100 µg/mL |

Further lines, with some results ahead:

| MIC [2] | MIC [3] | Structure (SMILES) | MIC [1] |
| --- | --- | --- | --- |
| 35 µg/mL | 1.3 µg/mL | CCCCCCCCCC(=O)N[C@@H](Cc1c[nH]c2ccccc12)C(=O)N[C@@H](CC(N)=O)C(=O)N[C@@H](CC(=O)O)C(=O)N[C@H]1COC(=O)[C@H](Cc2ccc(O)cc2)NC(=O)[C@H](CCC(=O)O)NC(=O)[C@@H](CO)NC(=O)CNC(=O)[C@H](CC(=O)O)NC(=O)[C@@H](C)NC(=O)[C@H](CC(=O)O)NC(=O)[C@H](CCCN)NC(=O)CNC1=O |  |
| 1.5 µg/mL | 1.5 µg/mL | CCCCCCCCCC(=O)N[C@@H](Cc1c[nH]c2ccccc12)C(=O)N[C@@H](CC(N)=O)C(=O)N[C@@H](CC(=O)O)C(=O)N[C@H]1COC(=O)[C@H](Cc2c[nH]c3ccccc23)NC(=O)[C@H](CCC(=O)O)NC(=O)[C@@H](CO)NC(=O)CNC(=O)[C@H](CC(=O)O)NC(=O)[C@@H](C)NC(=O)[C@H](CC(=O)O)NC(=O)[C@H](CCCN)NC(=O)CNC1=O | 5 µg/mL |
